In patent US11707539B2, “FAP-targeted radiopharmaceuticals and imaging agents, and uses related thereto” (Trustees of Tufts College, priority 2020, dated 2023) one finds radiochemical purity remained data, which are given here for one compound.

The series can be described thus: Radiochemical purity by HPLC on storage at room temperature. It is filed as physicochemical. The note with it: three days at room temperature. As for the experimental part: The labeling efficiency was analyzed by instant thin layer chromatography (iTLC) and was typically >98%. For iTLC analysis, 1 μL of diluted labeling solution was applied to a strip of iTLC-SA chromatography paper (Agilent P/N A120B12, 114×2.5 mm) and developed in 0.1M citrate buffer (8 cm solvent migration) to assess free ^177Lu (Rf >0.5) and [^177Lu]-6555 (Rf ˜0). The iTLC strips were analyzed using an Eckert & Ziegler AR-2000 Radio-TLC Imaging Scanner. The radiochemical purity was analyzed by high performance chromatography (HPLC) and was typically >90%. Briefly, the product was analyzed using a Phenomenex Luna 3.0 μm C18(2), 100A, 150 mm×4.6 mm column. Eluent A: 50 mM ammonium acetate in water, eluent B: acetonitrile. Gradient: 2% B from 0-5 min; 2% to 26% B from 5-20 min; 26% to 98% B from 20-25 min; 98% to 2% B from 25-26 min; 2% B from 26-30 min. Flow rate: 1.0 mL/min, Radio-HPLC detector: NaI (Eckert & Zeigler FC-1000), UV: 215 nm. The radiochemical purity remained >90% for three days at room temperature.
The above depicted radiopharmaceutical [^177Lu]-6952 can be prepared as described in Example 19 using the radiochemical precursor 6952 (Example 14 above). The labeling efficiency was analyzed by instant thin layer chromatography (iTLC) and was typically >98%. […] The iTLC strips were analyzed using an Eckert & Ziegler AR-2000 Radio-TLC Imaging Scanner. The radiochemical purity was analyzed by high performance chromatography (HPLC) and was typically >90%. Briefly, the product was analyzed using a Phenomenex Luna 3.0 m C18(2), 100A, 150 mm×4.6 mm column. […]
The labeling efficiency was analyzed by instant thin layer chromatography (iTLC) and was typically >95%. […] The iTLC strips were analyzed using an Eckert & Ziegler AR-2000 Radio-TLC Imaging Scanner. The radiochemical purity was analyzed by high performance chromatography (HPLC) and was typically >95%. Briefly, the product was analyzed using a Phenomenex Luna 3.0 m C18(2), 100Å, 150 mm×4.6 mm column. […]
The labeling efficiency was analyzed by instant thin layer chromatography (iTLC) and was typically >95%. […]

As for `C[C@@H](NC(=O)[C@H]1CC[C@H](CNC(=O)CN2CCN3CCN4CCN(CC2)CC(=O)[O][Lu]([O]C(=O)C3)[O]C(=O)C4)CC1)C(=O)N1CCC[C@H]1B(O)O` [[^177Lu]-6952], the radiochemical purity remained is over 90%.
